Data: PubChem BioAssay AID330 (DTP/NCI, 2004)
Several values for one entry are separate records, joined by “and”; a condition that tells them apart may be missing. Equal values may be shown once. Inconclusive results and toxic doses are left out.

Test system: P388 leukemia ip, CD2F1 mice, survival T/C
Experiment: NCI In Vivo Anticancer Drug Screen. Data for tumor model P388 Leukemia (intraperitoneal) in CD2F1 (CDF1) mice
Details: endpoint: median survival time, higher = longer survival
In short: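 Mice carrying the transplanted tumor received test compound or vehicle. Survival was recorded in each group, and the value is the treated-group measurement divided by that of the vehicle-treated control group.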

[1] = dose: 12.5 mg/kg/injection, schedule: Q01DX009 (ip), vehicle: other
[2] = dose: 25.0 mg/kg/injection, schedule: Q01DX009 (ip), vehicle: other
[3] = dose: 50.0 mg/kg/injection, schedule: Q01DX009 (ip), vehicle: other
[4] = dose: 25.0 mg/kg/injection, schedule: Q01DX009 (ip), vehicle: saline with Tween-80
[5] = dose: 50.0 mg/kg/injection, schedule: Q01DX009 (ip), vehicle: saline with Tween-80
[6] = dose: 100.0 mg/kg/injection, schedule: Q04DX003 (ip), vehicle: saline with Tween-80
[7] = dose: 200.0 mg/kg/injection, schedule: Q04DX003 (ip), vehicle: saline with Tween-80
[8] = dose: 400.0 mg/kg/injection, schedule: Q04DX003 (ip), vehicle: saline with Tween-80
[9] = dose: 100.0 mg/kg/injection, schedule: Q01DX009 (ip), vehicle: saline with Tween-80
[10] = dose: 50.0 mg/kg/injection, schedule: Q01DX005 (ip), vehicle: saline with Tween-80
[11] = dose: 100.0 mg/kg/injection, schedule: Q01DX005 (ip), vehicle: saline with Tween-80
[12] = dose: 200.0 mg/kg/injection, schedule: Q01DX005 (ip), vehicle: saline with Tween-80
[13] = dose: 6.25 mg/kg/injection, schedule: Q01DX005 (ip), vehicle: Klucel (hydroxypropylcellulose) (HPC)
[14] = dose: 12.5 mg/kg/injection, schedule: Q01DX005 (ip), vehicle: Klucel (hydroxypropylcellulose) (HPC)
[15] = dose: 25.0 mg/kg/injection, schedule: Q01DX005 (ip), vehicle: Klucel (hydroxypropylcellulose) (HPC)
[16] = dose: 60.0 mg/kg/injection, schedule: Q01DX005 (ip), vehicle: saline with Tween-80
[17] = dose: 120.0 mg/kg/injection, schedule: Q01DX005 (ip), vehicle: saline with Tween-80
[18] = dose: 50.0 mg/kg/injection, schedule: Q01DX009 (ip), vehicle: Klucel (hydroxypropylcellulose) (HPC)
[19] = dose: 100.0 mg/kg/injection, schedule: Q01DX009 (ip), vehicle: Klucel (hydroxypropylcellulose) (HPC)

SMILES: NNC(=O)c1cc2c(cn1)[nH]c1ccccc12
- T/C [1]: 101 % of control
- T/C [2]: 98 % of control
- T/C [3]: 97 % of control
- T/C (dose: 100.0 mg/kg/injection, schedule: Q01DX009 (ip), vehicle: other): 92 % of control
- T/C (dose: 200.0 mg/kg/injection, schedule: Q01DX009 (ip), vehicle: other): 101 % of control

SMILES: COC(=O)c1cc(=O)n(-c2ccccc2F)c(SC)n1
- T/C (dose: 25.0 mg/kg/injection, schedule: Q04DX003 (ip), vehicle: Klucel (hydroxypropylcellulose) (HPC)): 105 % of control
- T/C (dose: 50.0 mg/kg/injection, schedule: Q04DX003 (ip), vehicle: Klucel (hydroxypropylcellulose) (HPC)): 104 % of control
- T/C (dose: 100.0 mg/kg/injection, schedule: Q04DX003 (ip), vehicle: Klucel (hydroxypropylcellulose) (HPC)): 106 % of control

SMILES: CCCCN(C)N=Nc1ccccc1C(N)=O
- T/C [4]: 109 % of control
- T/C [5]: 118 % of control
- T/C [6]: 113 % of control
- T/C (dose: 176.0 mg/kg/injection, schedule: Q04DX003 (ip), vehicle: saline with Tween-80): 109 % of control
- T/C [7]: 109 % of control
- T/C (dose: 264.0 mg/kg/injection, schedule: Q04DX003 (ip), vehicle: saline with Tween-80): 109 % of control
- T/C [8]: 100 % of control

SMILES: CC1CCCN(C(=O)Nc2ccc([N+](=O)[O-])cc2)C1 (configuration not stated)
- T/C [5]: 99 % of control
- T/C [9]: 94 % of control
- T/C (dose: 200.0 mg/kg/injection, schedule: Q01DX009 (ip), vehicle: saline with Tween-80): 92 % of control

SMILES: C=C(C)C(O)C(O)c1cc2ccc(=O)oc2cc1OC (configuration not stated)
- T/C (dose: 12.5 mg/kg/injection, schedule: Q01DX009 (ip), vehicle: saline with Tween-80): 99 % of control
- T/C [4]: 99 % of control
- T/C [5]: 99 % of control
- T/C [9]: 107 % of control

SMILES: O=C(NCCCl)Nc1ccnc(=O)[nH]1
- T/C [10]: 107 % of control
- T/C [11]: 107 % of control
- T/C [12]: 111 % of control

SMILES: O=C(OCc1ccccc1)N1Cc2cc3ccccc3nc2C1
- T/C [6]: 103 % of control
- T/C [7]: 103 % of control
- T/C [8]: 101 % of control

SMILES: CN1CCc2c1c1c(c3c4ccccc4n(C)c23)N(C)CC1
- T/C [13]: 103 % of control
- T/C [14]: 104 % of control
- T/C [15]: 107 % of control

SMILES: CCCN1C=C(C(=O)OC)C(N)=C(C#N)/C1=C\C=C(/C#N)C(=O)OC
- T/C (dose: 50.0 mg/kg/injection, schedule: Q04DX002 (ip), vehicle: Klucel (hydroxypropylcellulose) (HPC)): 93 % of control
- T/C (dose: 100.0 mg/kg/injection, schedule: Q04DX002 (ip), vehicle: Klucel (hydroxypropylcellulose) (HPC)): 100 % of control
- T/C (dose: 200.0 mg/kg/injection, schedule: Q04DX002 (ip), vehicle: Klucel (hydroxypropylcellulose) (HPC)): 90 % of control

SMILES: CCCCCCCCCCCC(C)[N+](C)(C)[O-] (configuration not stated)
- T/C (dose: 12.5 mg/kg/injection, schedule: Q01DX009 (ip), vehicle: saline): 102 % of control
- T/C (dose: 25.0 mg/kg/injection, schedule: Q01DX009 (ip), vehicle: saline): 96 % of control
- T/C (dose: 50.0 mg/kg/injection, schedule: Q01DX009 (ip), vehicle: saline): 87 % of control and 91 % of control

SMILES: CC1=C(C)C(C#N)N(C)CC1 (configuration not stated)
- T/C (dose: 3.75 mg/kg/injection, schedule: Q01DX005 (ip), vehicle: Klucel (hydroxypropylcellulose) (HPC)): 102 % of control
- T/C (dose: 7.5 mg/kg/injection, schedule: Q01DX005 (ip), vehicle: Klucel (hydroxypropylcellulose) (HPC)): 100 % of control

SMILES: O=C1CCCN1C1CC2c3ccccc3C1c1cccc[n+]12 (configuration not stated)
- T/C (dose: 5.0 mg/kg/injection, schedule: Q01DX009 (ip), vehicle: saline sonified): 100 % of control
- T/C (dose: 10.0 mg/kg/injection, schedule: Q01DX009 (ip), vehicle: saline sonified): 100 % of control
- T/C (dose: 20.0 mg/kg/injection, schedule: Q01DX009 (ip), vehicle: saline sonified): 95 % of control

SMILES: Cc1ccc2c(O)c3c(cc2c1)C(=O)c1c2c(cc(O)c1C3=O)C1(C)OC(O2)C(O)C(N(C)C)C1O (configuration not stated)
- T/C (dose: 1.6 mg/kg/injection, schedule: Q01DX009 (ip), vehicle: other): 97 % of control
- T/C (dose: 3.13 mg/kg/injection, schedule: Q01DX009 (ip), vehicle: other): 98 % of control
- T/C (dose: 6.25 mg/kg/injection, schedule: Q01DX009 (ip), vehicle: other): 87 % of control
- T/C [1]: 116 % of control
- T/C [2]: 97 % of control

SMILES: CCc1ccccc1NC1=C(Cl)C(=O)c2ccccc2C1=O
- T/C [16]: 104 % of control
- T/C [17]: 107 % of control

SMILES: Cc1cc(=O)n2[nH]c(-c3ccco3)cc2n1
- T/C [16]: 104 % of control
- T/C [17]: 104 % of control
- T/C (dose: 240.0 mg/kg/injection, schedule: Q01DX005 (ip), vehicle: saline with Tween-80): 105 % of control

SMILES: COc1cccc(CN2CCN(N)CC2)c1
- T/C [14]: 100 % of control
- T/C [15]: 104 % of control
- T/C (dose: 50.0 mg/kg/injection, schedule: Q01DX005 (ip), vehicle: Klucel (hydroxypropylcellulose) (HPC)): 107 % of control
- T/C (dose: 100.0 mg/kg/injection, schedule: Q01DX005 (ip), vehicle: Klucel (hydroxypropylcellulose) (HPC)): 100 % of control

SMILES: C/C=C(\C)C(=O)OC1C(O)C(C)(C)C2C3C(=O)C=C(C)C2C3(C)C1OC(=O)/C(C)=C/C (configuration not stated)
- T/C (dose: 12.5 mg/kg/injection, schedule: Q01DX009 (ip), vehicle: Klucel (hydroxypropylcellulose) (HPC)): 103 % of control
- T/C (dose: 25.0 mg/kg/injection, schedule: Q01DX009 (ip), vehicle: Klucel (hydroxypropylcellulose) (HPC)): 100 % of control
- T/C [18]: 103 % of control
- T/C [19]: 103 % of control

SMILES: CCN(CC)CC.[CH-]1CCCCC1.[CH-]1CCCCC1.[CH3-].[Cl-].[Cl-].[Sn+4]
- T/C (dose: 6.0 mg/kg/injection, schedule: Q01DX005 (ip), vehicle: saline): 107 % of control
- T/C (dose: 12.0 mg/kg/injection, schedule: Q01DX005 (ip), vehicle: saline): 96 % of control

SMILES: CN=C(NCCc1ccccc1)c1ccc(NC(=O)c2ccc(C(=O)Nc3ccc(C(=NC)NCCc4ccccc4)cc3)cc2)cc1
- T/C (dose: 3.12 mg/kg/injection, schedule: Q01DX005 (ip), vehicle: Klucel (hydroxypropylcellulose) (HPC)): 114 % of control
- T/C [13]: 116 % of control and 122 % of control
- T/C [14]: 154 % of control

SMILES: CCOC(=O)CCN(CCN(C)C)c1cc(O)c2c(c1O)C(=O)c1ccccc1C2=O
- T/C [10]: 121 % of control
- T/C [11]: 120 % of control

SMILES: CCOC(=O)C(N=Nc1ccccc1)/N=N\c1nn[nH]n1 (configuration not stated)
- T/C (dose: 50.0 mg/kg/injection, schedule: Q01DX001 (ip), vehicle: Klucel (hydroxypropylcellulose) (HPC)): 91 % of control
- T/C (dose: 100.0 mg/kg/injection, schedule: Q01DX001 (ip), vehicle: Klucel (hydroxypropylcellulose) (HPC)): 91 % of control
- T/C (dose: 200.0 mg/kg/injection, schedule: Q01DX001 (ip), vehicle: Klucel (hydroxypropylcellulose) (HPC)): 91 % of control

SMILES: CN(C)C1C(=O)C(C(=O)NCNC(C=O)C(O)C(O)C(O)CO)=C(O)C2(O)C(=O)C3=C(O)c4c(O)cccc4C(C)(O)C3CC12 (configuration not stated)
- T/C (dose: 50.0 mg/kg/injection, schedule: Q01DX005 (ip), vehicle: saline): 100 % of control
- T/C (dose: 100.0 mg/kg/injection, schedule: Q01DX005 (ip), vehicle: saline): 99 % of control
- T/C (dose: 200.0 mg/kg/injection, schedule: Q01DX005 (ip), vehicle: saline): 96 % of control

SMILES: COc1cc(Br)c(C(=O)N(C)c2ccccc2)cc1OC
- T/C [2]: 106 % of control
- T/C [3]: 108 % of control

SMILES: COc1ccc(NNc2ccc(OC)cc2)cc1
- T/C (dose: 50.0 mg/kg/injection, schedule: Q04DX003 (ip), vehicle: saline with Tween-80): 100 % of control
- T/C [6]: 92 % of control
- T/C [7]: 92 % of control

SMILES: COc1cc(C2(c3ccc(O)c(OC)c3)CCCCC2)ccc1O
- T/C [18]: 100 % of control
- T/C [19]: 100 % of control
- T/C (dose: 200.0 mg/kg/injection, schedule: Q01DX009 (ip), vehicle: Klucel (hydroxypropylcellulose) (HPC)): 100 % of control

SMILES: C/C=C/c1cnc2nc(N)nc(N)c2n1
- T/C (dose: 100.0 mg/kg/injection, schedule: Q04DX002 (ip), vehicle: saline with Tween-80): 99 % of control
- T/C (dose: 200.0 mg/kg/injection, schedule: Q04DX002 (ip), vehicle: saline with Tween-80): 104 % of control
- T/C (dose: 400.0 mg/kg/injection, schedule: Q04DX002 (ip), vehicle: saline with Tween-80): 107 % of control

SMILES: CC1N(C)c2cc([N+](=O)[O-])ccc2C1(C)C (configuration not stated)
- T/C [10]: 95 % of control
- T/C [11]: 100 % of control
- T/C [12]: 87 % of control
